Legend:
[1] = test system: MV4:11 human cancer cell lines; experiment: Cellular viability / anti-proliferative assay, CellTiter-Glo, 5 day protocol; type: cell-based; conditions: Homo sapiens, MV4-11, 120 h, MV4:11 cells; 5 day incubation; CellTiter-Glo; mean of at least two replicates; read-out: GI50 on cellular proliferation of MV4:11 human cancer cell lines
Procedure, shortened: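 MV-4-11 cells in IMDM with 10% FBS, 200 cells/well, exposed 5 days to 22 two-fold dilutions from 30 μM, final DMSO 0.3%. Viability read by CellTiter-Glo luminescence; GI50 from sigmoidal dose-response fit, mean of at least two replicates.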

WDR5 = WDR5 (Homo sapiens, UniProt P61964); experiment: TR-FRET competition binding assay, displacement of 10mer-Thr-FAM MLL peptide probe from His-tagged WDR5; conditions: WDR5-His tag (residues 24-334) 2 nM; 10mer-Thr-FAM 150 nM; 60 min, room temperature; read-out: Ki for Inhibition of WDR5 by TR-FRET assay

SMILES	GI50 [1]	Ki (WDR5)
CCc1cc(OC(F)(F)F)c2nccc(N3CCc4c(cc(Cn5ccnc5)cc4-c4cn(C)nc4C(F)(F)F)C3=O)c2c1 [Example 176, 7-((1H-imidazol-1-yl)methyl)-2-(6-ethyl-8-(trifluoromethoxy)quinolin-4-yl)-5-(1-methyl-3-(trifluoromethyl)-1H-pyrazol-4-yl)-3,4-dihydroisoquinolin-1(2H)-one]	33 nM	< 0.02 nM
CCc1cc(COC2CNC2)c2nccc(N3CCc4c(cc(Cn5ccnc5)cc4-c4cn(C)nc4C(F)(F)F)C3=O)c2c1 [Example 179, 7-((1H-Imidazol-1-yl)methyl)-2-(8-((azetidin-3-yloxy)methyl)-6-ethylquinolin-4-yl)-5-(1-methyl-3-(trifluoromethyl)-1H-pyrazol-4-yl)-3,4-dihydroisoquinolin-1(2H)-one]	33 nM	< 0.02 nM
COc1cc(C(=O)NS(C)(=O)=O)c2nc(C)cc(N3CCc4c(cc(Cn5ccnc5)cc4-c4cn(C)nc4C(F)(F)F)C3=O)c2c1 [Example 181, 4-(7-((1H-Imidazol-1-yl)methyl)-5-(1-methyl-3-(trifluoromethyl)-1H-pyrazol-4-yl)-1-oxo-3,4-dihydroisoquinolin-2(1H)-yl)-6-methoxy-2-methyl-N-(methylsulfonyl)quinoline-8-carboxamide]	856 nM	0.04 nM
COc1cc(C(=N)NO)c2nc(C)cc(N3CCc4c(cc(Cn5ccnc5)cc4-c4cn(C)nc4C(F)(F)F)C3=O)c2c1 [Example 184, 4-(7-((1H-Imidazol-1-yl)methyl)-5-(1-methyl-3-(trifluoromethyl)-1H-pyrazol-4-yl)-1-oxo-3,4-dihydroisoquinolin-2(1H)-yl)-N-hydroxy-6-methoxy-2-methylquinoline-8-carboximidamide]	21 nM	< 0.02 nM
CCc1cc(COc2ccncc2)c2nccc(N3CCc4c(cc(Cn5ccnc5)cc4-c4cn(C)nc4C(F)(F)F)C3=O)c2c1 [Example 187, 7-((1H-Imidazol-1-yl)methyl)-2-(6-ethyl-8-((pyridin-4-yloxy)methyl)quinolin-4-yl)-5-(1-methyl-3-(trifluoromethyl)-1H-pyrazol-4-yl)-3,4-dihydroisoquinolin-1(2H)-one]	43 nM	< 0.02 nM
CCc1cc(C(=O)NCCOC)c2nc(C)cc(N3CCc4c(cc(Cn5ccnc5)cc4-c4cn(C)nc4C(F)(F)F)C3=O)c2c1 [Example 190, 4-(7-((1H-Imidazol-1-yl)methyl)-5-(1-methyl-3-(trifluoromethyl)-1H-pyrazol-4-yl)-1-oxo-3,4-dihydroisoquinolin-2(1H)-yl)-6-ethyl-N-(2-methoxyethyl)-2-methylquinoline-8-carboxamide]	< 20 nM	< 0.02 nM
CCc1cc(COC2COC2)c2nccc(N3CCc4c(cc(Cn5ccnc5)cc4-c4cn(C)nc4C(F)(F)F)C3=O)c2c1 [Example 191, 7-((1H-Imidazol-1-yl)methyl)-2-(6-ethyl-8-((oxetan-3-yloxy)methyl)quinolin-4-yl)-5-(1-methyl-3-(trifluoromethyl)-1H-pyrazol-4-yl)-3,4-dihydroisoquinolin-1(2H)-one]	< 20 nM	< 0.02 nM
CCc1cc(C(=O)NCCN(C)C)c2nc(C)cc(N3CCc4c(cc(Cn5ccnc5)cc4-c4cn(C)nc4C(F)(F)F)C3=O)c2c1 [Example 194, 4-(7-((1H-Imidazol-1-yl)methyl)-5-(1-methyl-3-(trifluoromethyl)-1H-pyrazol-4-yl)-1-oxo-3,4-dihydroisoquinolin-2(1H)-yl)-N-(2-(dimethylamino)ethyl)-6-ethyl-2-methylquinoline-8-carboxamide]	< 20 nM	< 0.02 nM
COc1cc(N2CCC(OC)CC2)c2nc(C)cc(N3CCc4c(cc(Cn5ccnc5)cc4-c4cn(C)nc4C(F)(F)F)C3=O)c2c1 [Example 195, 7-((1H-Imidazol-1-yl)methyl)-2-(6-methoxy-8-(4-methoxypiperidin-1-yl)-2-methylquinolin-4-yl)-5-(1-methyl-3-(trifluoromethyl)-1H-pyrazol-4-yl)-3,4-dihydroisoquinolin-1(2H)-one]	< 20 nM	< 0.02 nM
CCc1cc(N2C[C@H]3CN(C)C[C@H]3C2)c2nc(C)cc(N3CCc4c(cc(Cn5ccnc5)cc4-c4cn(C)nc4C(F)(F)F)C3=O)c2c1 [Example 197, 7-((1H-Imidazol-1-yl)methyl)-2-(6-ethyl-2-methyl-8-((3aR,6aS)-5-methylhexahydropyrrolo[3,4-c]pyrrol-2(1H)-yl)quinolin-4-yl)-5-(1-methyl-3-(trifluoromethyl)-1H-pyrazol-4-yl)-3,4-dihydroisoquinolin-1(2H)-one]	< 20 nM	0.02 nM
COc1cc(C(=O)Nc2ncco2)c2nc(C)cc(N3CCc4c(cc(Cn5ccnc5)cc4-c4cn(C)nc4C(F)(F)F)C3=O)c2c1 [Example 200, 4-(7-((1H-Imidazol-1-yl)methyl)-5-(1-methyl-3-(trifluoromethyl)-1H-pyrazol-4-yl)-1-oxo-3,4-dihydroisoquinolin-2(1H)-yl)-6-methoxy-2-methyl-N-(oxazol-2-yl)quinoline-8-carboxamide]	28 nM	< 0.02 nM
COc1cc(-c2cn[nH]c2)c2nc(C)cc(N3CCc4c(cc(Cn5ccnc5)cc4-c4cn(C)nc4C(F)(F)F)C3=O)c2c1 [Example 201, 7-((1H-imidazol-1-yl)methyl)-2-(6-methoxy-2-methyl-8-(1H-pyrazol-4-yl)quinolin-4-yl)-5-(1-methyl-3-(trifluoromethyl)-1H-pyrazol-4-yl)-3,4-dihydroisoquinolin-1(2H)-one]	23 nM	0.023 nM

Second part, the compound after the results:

GI50 [1]	Ki (WDR5)	SMILES
< 20 nM	< 0.02 nM	CCc1cc(C(=O)NC2CCOCC2)c2nccc(N3CCc4c(cc(Cn5ccnc5)cc4-c4cn(C)nc4C(F)(F)F)C3=O)c2c1 [Example 171, 4-(7-((1H-Imidazol-1-yl)methyl)-5-(1-methyl-3-(trifluoromethyl)-1H-pyrazol-4-yl)-1-oxo-3,4-dihydroisoquinolin-2(1H)-yl)-6-ethyl-N-(tetrahydro-2H-pyran-4-yl)quinoline-8-carboxamide]
< 20 nM	< 0.02 nM	CCc1cc(C(=O)NC2CC2)c2nccc(N3CCc4c(cc(Cn5ccnc5)cc4-c4cn(C)nc4C(F)(F)F)C3=O)c2c1 [Example 172, 4-(7-((1H-Imidazol-1-yl)methyl)-5-(1-methyl-3-(trifluoromethyl)-1H-pyrazol-4-yl)-1-oxo-3,4-dihydroisoquinolin-2(1H)-yl)-N-cyclopropyl-6-ethylquinoline-8-carboxamide]
< 20 nM	< 0.02 nM	CCc1cc(C(=O)NCc2cnccn2)c2nccc(N3CCc4c(cc(Cn5ccnc5)cc4-c4cn(C)nc4C(F)(F)F)C3=O)c2c1 [Example 173, 4-(7-((1H-Imidazol-1-yl)methyl)-5-(1-methyl-3-(trifluoromethyl)-1H-pyrazol-4-yl)-1-oxo-3,4-dihydroisoquinolin-2(1H)-yl)-6-ethyl-N-(pyrazin-2-ylmethyl)quinoline-8-carboxamide]
< 20 nM	< 0.02 nM	COc1cc(C#N)c2nc(C)cc(N3CCc4c(cc(Cn5ccnc5)cc4-c4cn(C)nc4C(F)(F)F)C3=O)c2c1 [Example 175, 4-(7-((1H-Imidazol-1-yl)methyl)-5-(1-methyl-3-(trifluoromethyl)-1H-pyrazol-4-yl)-1-oxo-3,4-dihydroisoquinolin-2(1H)-yl)-6-methoxy-2-methylquinoline-8-carbonitrile]
< 20 nM	< 0.02 nM	CCc1cc(COC2CCOCC2)c2nccc(N3CCc4c(cc(Cn5ccnc5)cc4-c4cn(C)nc4C(F)(F)F)C3=O)c2c1 [Example 182, 7-((1H-Imidazol-1-yl)methyl)-2-(6-ethyl-8-(((tetrahydro-2H-pyran-4-yl)oxy)methyl)quinolin-4-yl)-5-(1-methyl-3-(trifluoromethyl)-1H-pyrazol-4-yl)-3,4-dihydroisoquinolin-1(2H)-one]
< 20 nM	< 0.02 nM	CNC(=O)c1cc(OC)cc2c(N3CCc4c(cc(Cn5ccnc5)cc4-c4cn(C)nc4C(F)(F)F)C3=O)cc(C)nc12 [Example 183, 4-(7-((1H-Imidazol-1-yl)methyl)-5-(1-methyl-3-(trifluoromethyl)-1H-pyrazol-4-yl)-1-oxo-3,4-dihydroisoquinolin-2(1H)-yl)-6-methoxy-N,2-dimethylquinoline-8-carboxamide]
< 20 nM	< 0.02 nM	CCc1cc(C(=O)NC2CCN(C)CC2)c2nccc(N3CCc4c(cc(Cn5ccnc5)cc4-c4cn(C)nc4C(F)(F)F)C3=O)c2c1 [Example 186, 4-(7-((1H-Imidazol-1-yl)methyl)-5-(1-methyl-3-(trifluoromethyl)-1H-pyrazol-4-yl)-1-oxo-3,4-dihydroisoquinolin-2(1H)-yl)-6-ethyl-N-(1-methylpiperidin-4-yl)quinoline-8-carboxamide]
< 20 nM	< 0.02 nM	CCc1cc(COC)c2nccc(N3CCc4c(cc(Cn5ccnc5)cc4-c4cn(C)nc4C(F)(F)F)C3=O)c2c1 [Example 188, 7-((1H-Imidazol-1-yl)methyl)-2-(6-ethyl-8-(methoxymethyl)quinolin-4-yl)-5-(1-methyl-3-(trifluoromethyl)-1H-pyrazol-4-yl)-3,4-dihydroisoquinolin-1(2H)-one]
< 20 nM	< 0.02 nM	COc1cc(C(=O)NC2CCN(C)CC2)c2nc(C)cc(N3CCc4c(cc(Cn5ccnc5)cc4-c4cn(C)nc4C(F)(F)F)C3=O)c2c1 [Example 189, 4-(7-((1H-Imidazol-1-yl)methyl)-5-(1-methyl-3-(trifluoromethyl)-1H-pyrazol-4-yl)-1-oxo-3,4-dihydroisoquinolin-2(1H)-yl)-6-methoxy-2-methyl-N-(1-methylpiperidin-4-yl)quinoline-8-carboxamide]
